In patent publication US20100227853A1, “INHIBITORS OF CYCLIC AMP PHOSPHODIESTERASES” (Trustees of Boston College, priority 2008, published 2010):

Legend:
[1] = biological target: T1, PDE4A1 (Mus musculus, UniProt O89084); assay: 5FOA growth assay (high throughput screen, ED50) in fission yeast strain expressing PDE4A1; assay type: cell-based; settings: high throughput 5FOA growth screen; greater than 8.53 = statistically-significant inhibitor
T1 construct: targets used in the assays are full-length proteins (as opposed to simply the catalytic domain); expressed in transfected cells; host or cells: Schizosaccharomyces pombe, PDE gene integrated in place of cgs2
T1 sequence (O89084 1-610 isoform O89084-2): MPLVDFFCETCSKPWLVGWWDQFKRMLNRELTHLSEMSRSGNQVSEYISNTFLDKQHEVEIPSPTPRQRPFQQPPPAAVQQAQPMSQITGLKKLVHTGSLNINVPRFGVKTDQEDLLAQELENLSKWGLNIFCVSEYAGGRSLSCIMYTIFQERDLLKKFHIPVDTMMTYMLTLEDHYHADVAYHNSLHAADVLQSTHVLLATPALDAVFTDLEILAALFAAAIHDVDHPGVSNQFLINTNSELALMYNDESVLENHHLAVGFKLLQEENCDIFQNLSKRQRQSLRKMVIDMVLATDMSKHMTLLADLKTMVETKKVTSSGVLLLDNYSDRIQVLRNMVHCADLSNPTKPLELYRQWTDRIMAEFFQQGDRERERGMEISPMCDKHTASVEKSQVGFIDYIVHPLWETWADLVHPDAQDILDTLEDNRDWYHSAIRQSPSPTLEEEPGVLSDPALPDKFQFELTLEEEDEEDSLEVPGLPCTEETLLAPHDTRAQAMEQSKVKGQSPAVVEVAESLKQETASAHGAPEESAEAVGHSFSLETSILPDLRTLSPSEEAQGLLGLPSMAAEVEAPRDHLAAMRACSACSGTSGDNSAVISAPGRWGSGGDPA
Procedure: (§1) High throughput drug screens were carried out at the Broad Institute's Chemical Biology Program screening facility (Broad Institute, Cambridge, Mass.). Depending upon the strain, cultures were pregrown to exponential phase in EMM complete medium containing from 0.5 to 2.5 mM cAMP to repress fbp1-ura4 transcription. […] Starting cell concentrations ranged from 0.5×10^5 to 4×10^5 cells/ml depending on the screening strain. […] Other positive control dishes contained 5 mM cAMP in the 5FOA medium. Cultures were grown for 48 hours at 30° C., sealed in an airtight container with moist paper towels to prevent evaporation. Optical densities (OD600) of cultures were measured using a microplate reader. Bioinformatic analysis of the results to determine composite Z scores was performed as previously described^30, 31.
(§2) To determine whether the 5FOA growth phenotype could be exploited for high throughput drug screening, strains expressing PDE2A, PDE4A, PDE4B, or PDE8A were pre-grown in EMM medium containing cAMP and then transferred to 5FOA medium in 384 well microtiter plates in the presence or absence of cAMP. OD600 measurements were taken after 48 hours incubation at 30° C.
(§3) Cells were pregrown in EMM medium [MP Biomedicals (Solon, Ohio), 3% glucose, filter-sterilized to avoid carmelization, which would introduce variability into the optical density of the medium] containing from 0 mM to 2.5 mM cAMP (or either 0.5 mM or 1.0 mM cGMP). This was to repress expression of the fbp1-ura4 reporter prior to exposure of cells to 5FOA medium. Cells were grown at 30° C. to exponential phase (approximately 10^7 cells/ml). […] Starting cell concentrations ranged from 0.5×10^5 to 4×10^5 cells/ml depending on the screening strain. […] Other positive control dishes contained 5 mM cAMP in the 5FOA medium for PDEs that lack appropriate control compounds. Cultures were grown for 48 hours at 30° C., sealed in an airtight container with moist paper towels to prevent evaporation. Optical densities (OD600) of cultures were measured using a microplate reader. Bioinformatic analysis of the results to determine composite Z scores was performed as previously described (1, 3).

[2] = biological target: T2, PDE4B3 (Mus musculus, UniProt Q8VBU5); assay: 5FOA growth assay in fission yeast strain expressing PDE4B3; assay type: cell-based, Murine; settings: for Composite Z score, PDE4B3: high throughput 5FOA growth screen
T2 construct: targets used in the assays are full-length proteins (as opposed to simply the catalytic domain); expressed in transfected cells; host or cells: Schizosaccharomyces pombe, PDE gene integrated in place of cgs2
T2 sequence (Q8VBU5 1-721): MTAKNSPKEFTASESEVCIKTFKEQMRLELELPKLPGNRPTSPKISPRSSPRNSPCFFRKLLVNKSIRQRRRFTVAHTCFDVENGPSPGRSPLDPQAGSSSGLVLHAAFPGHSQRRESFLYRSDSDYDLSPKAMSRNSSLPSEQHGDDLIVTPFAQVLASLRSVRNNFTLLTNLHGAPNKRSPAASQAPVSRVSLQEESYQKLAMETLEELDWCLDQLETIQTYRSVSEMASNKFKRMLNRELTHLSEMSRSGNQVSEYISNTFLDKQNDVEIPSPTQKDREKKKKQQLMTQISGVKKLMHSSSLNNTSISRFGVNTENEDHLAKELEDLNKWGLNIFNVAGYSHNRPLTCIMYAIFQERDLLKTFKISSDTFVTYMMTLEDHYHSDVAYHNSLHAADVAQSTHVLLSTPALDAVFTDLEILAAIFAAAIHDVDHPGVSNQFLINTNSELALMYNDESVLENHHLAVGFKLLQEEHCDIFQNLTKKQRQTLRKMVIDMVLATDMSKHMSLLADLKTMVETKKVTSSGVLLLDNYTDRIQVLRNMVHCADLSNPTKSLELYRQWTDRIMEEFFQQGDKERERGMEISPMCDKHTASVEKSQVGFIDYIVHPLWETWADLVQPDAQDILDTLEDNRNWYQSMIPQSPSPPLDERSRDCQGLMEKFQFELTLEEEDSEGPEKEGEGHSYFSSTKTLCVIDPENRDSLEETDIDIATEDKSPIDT
Procedure: as §1, §2, §3

Structure (SMILES) | Composite Z score, PDE4A1 [1] | Composite Z score, PDE4B3 [2] | 1 Assay (20 uM) 4B3 ([2]; 20 uM)
Cc1c(C(=O)NCC2CCCO2)sc2ncnc(N3CCN(c4ccccc4)CC3)c12 (stereo not shown) [1159 E19] | 1.0613 |  | 
Cc1c(C(=O)N2CCC3(CC2)OCCO3)sc2ncnc(N(C)c3ccccc3)c12 [1393 E07] | 3.1682 | −1.206 | 
OCCN(CCO)c1ncnc2sc3c(c12)CCCC3 [1415 E01] | 2.2076 | 0.8257 | 
c1cn(CCCNc2ncnc3sc4c(c23)CCCC4)cn1 [1435 E20] | 1.6661 | 0.5336 | 
N#Cc1sc(C(N)=O)c(-c2ccco2)c1-c1ccco1 [1449, A02] |  |  | 1.8244 ND ND ND ND
CC1CCc2c(sc3nc(SCC(N)=O)nc(NCc4ccccc4)c23)C1 (stereo not shown) [Compound 1157L22] | 2.3434 |  | 
CCOC(=O)c1sc2nc(CC(=O)OC)nc(NCCN3CCOCC3)c2c1C [Compound 1158A03] | 0.3744 |  | 
CCN(CC)CCCNC(=O)c1sc2ncnc(N3CCN(c4ccc(OC)cc4)CC3)c2c1C [Compound 1158C03] | 2.6937 |  | 
Cc1nc(N2CCN(C)CC2)c2c(C)c(C(=O)N3CCN(c4cccc(Cl)c4)CC3)sc2n1 [Compound 1158G03] | −0.078 |  | 
CCOC(=O)CNC(=O)c1sc2ncnc(N3CCN(c4ccccc4F)CC3)c2c1C [Compound 1159A19] | 2.4477 |  | 
COCCCNC(=O)c1sc2ncnc(N3CCN(c4ccccc4F)CC3)c2c1C [Compound 1159C19] | 2.6846 |  | 
Cc1c(C(=O)Nc2ccc3c(c2)OCO3)sc2ncnc(N3CCc4ccccc4C3)c12 [Compound 1159C21] | 3.9976 |  | 
CCOC(=O)c1sc2ncnc(N3CCC4(CC3)OCCO4)c2c1C [Compound 1159G15] | 5.3411 |  | 
Cc1c(C(=O)NCc2ccco2)sc2ncnc(N3CCN(c4ccccc4)CC3)c12 [Compound 1159G19] | 7.7398 |  | 
Cc1c(C(=O)NCc2ccco2)sc2ncnc(N3CCc4ccccc4C3)c12 [Compound 1159I19] | 26.235 |  | 
COC(=O)c1ccccc1NC(=O)c1sc2ncnc(N3CCN(c4ccccn4)CC3)c2c1C [Compound 1159K09] | 0.5937 |  | 
CCCCNC(=O)c1sc2ncnc(N3CCc4ccccc4C3)c2c1C [Compound 1159K19] | 5.4376 |  | 
COCCNC(=O)c1sc2ncnc(N3CCN(c4ccccn4)CC3)c2c1C [Compound 1159M09] | 1.1811 |  | 
COc1cc(NC(=O)c2sc3nc(C)nc(N4CCCCC4C)c3c2C)cc(OC)c1OC (stereo not shown) [Compound 1159M15] | 17.363 |  | 
Cc1c(C(=O)NCC2CCCO2)sc2ncnc(N3CCN(c4ccccc4F)CC3)c12 (stereo not shown) [Compound 1159M17] | 1.9801 |  | 
COCCCNC(=O)c1sc2ncnc(N3CCc4ccccc4C3)c2c1C [Compound 1159M19] | 5.0576 |  | 
COc1cc(NC(=O)c2sc3nc(C)nc(N4CCOCC4)c3c2C)cc(OC)c1OC [Compound 1159O09] | 0.8757 |  | 

Structure (SMILES) | Composite Z score, PDE4A1 [1] | Composite Z score, PDE4B3 [2] | 1 Assay (20 uM) 4B3 ([2]; 20 uM)
Cc1c(C(=O)NCc2ccco2)sc2ncnc(N3CCN(c4ccccc4F)CC3)c12 [Compound 1159O17] | 3.616 |  | 
Cc1c(C(=O)NCc2ccccn2)sc2ncnc(N3CCc4ccccc4C3)c12 [Compound 1159O19] | 11.945 |  | 
CCOC(=O)c1sc2nc(CC(=O)OC)nc(NCC(=O)OC)c2c1C [Compound 1379F18] | −0.126 | 3.0462 | 
CCOC(=O)c1sc2ncnc(N3CCc4ccccc4C3)c2c1C [Compound 1379L18] | −0.753 | 1.8207 | 
CC(C)(C)C(=O)Nc1ncnc2sc3c(c12)CCCC3 [Compound 1379O22] | 1.5734 | −0.703 | 
CCN(CC)c1ncnc2sc3c(c12)CCC(C#N)(c1ccccc1)C3 (stereo not shown) [Compound 1380G04] | 20.429 | −0.752 | 
O=C(Nc1ncnc2sc3c(c12)CCC3)c1ccccc1 [Compound 1380I07] | 36.663 | −0.935 | 
N#CC1(c2ccccc2)CCc2c(sc3ncnc(N4CCCC4)c23)C1 (stereo not shown) [Compound 1380I09] | 1.2506 | −1.076 | 
CCC(CO)Nc1nc(C)nc2sc3c(c12)CCC3 (stereo not shown) [Compound 1380M03] | −1.217 | −2.398 | 
CC(C)C(Nc1ncnc2sc3c(c12)CCC3)C(=O)O (stereo not shown) [Compound 1381A19] | 1.3339 | 0.2365 | 
O=C(O)C(Cc1ccccc1)Nc1ncnc2sc3c(c12)CCC3 (stereo not shown) [Compound 1381O17] | −0.467 | 0.3352 | 
COC(=O)Cc1nc(N2CCC(C)CC2)c2c3c(sc2n1)CCCC3 [Compound 1392J18] | 10.795 | 0.7173 | 
CCN(CC)c1ncnc2sc(C)c(C)c12 [Compound 1403J21] | 1.647 | 0.0332 | 
O=C(Nc1ncnc2sc3c(c12)CCCC3)C(F)(F)F [Compound 1406P09] | 0.1456 | 0.5128 | 
CC(C)N(C)c1ncnc2sc3c(c12)CCC3 [Compound 1407G21] | 12.819 | 0.0445 | 
CCNc1nc(C)nc2sc3c(c12)CCCC3 [Compound 1410G03] | 2.9506 | 2.8289 | 
CN(C)CCCNc1ncnc2sc3c(c12)CCCC3 [Compound 1414C02] | 1.6456 | 21.25 | 
CCN1CCN(c2nc(C)nc3sc4c(c23)CCC4)CC1 [Compound 1414C06] | 1.6242 | 0.632 | 
COc1ccc(C(=O)Nc2ncnc3sc4c(c23)CCCC4)cc1OC [Compound 1414F18] | 9.1375 | −0.382 | 
Cc1nc(N2CCCN(C)CC2)c2c3c(sc2n1)CCC3 [Compound 1415C05] | 0.327 | 0.6059 | 
COc1ccccc1C(=O)Nc1ncnc2sc3c(c12)CCCC3 [Compound 1415M01] | 1.7784 | 1.1976 | 
c1nc(N2CCCCC2)c2c3c(sc2n1)CCC3 [Compound 1421A20] | 4.6254 | 4.7765 | 
